Assay results: US11865086B2, “Cinnamaldehyde derivative compounds and methods of use for cinnamaldehyde derivative compounds nicotine cessation” (Pacific University, priority 2018, dated 2024)
Entries after “also recorded” stand apart in the source; their conditions may differ. Like-named read-outs stand apart in the source and are kept apart here. Blank lines part the entries; values can stand above or below the molecule they belong to.

Columns and labels:
[1] = molecular target: T1, CYP2A6 (Homo sapiens, UniProt P11509); experiment: biochemical
T1 sequence (P11509 1-494): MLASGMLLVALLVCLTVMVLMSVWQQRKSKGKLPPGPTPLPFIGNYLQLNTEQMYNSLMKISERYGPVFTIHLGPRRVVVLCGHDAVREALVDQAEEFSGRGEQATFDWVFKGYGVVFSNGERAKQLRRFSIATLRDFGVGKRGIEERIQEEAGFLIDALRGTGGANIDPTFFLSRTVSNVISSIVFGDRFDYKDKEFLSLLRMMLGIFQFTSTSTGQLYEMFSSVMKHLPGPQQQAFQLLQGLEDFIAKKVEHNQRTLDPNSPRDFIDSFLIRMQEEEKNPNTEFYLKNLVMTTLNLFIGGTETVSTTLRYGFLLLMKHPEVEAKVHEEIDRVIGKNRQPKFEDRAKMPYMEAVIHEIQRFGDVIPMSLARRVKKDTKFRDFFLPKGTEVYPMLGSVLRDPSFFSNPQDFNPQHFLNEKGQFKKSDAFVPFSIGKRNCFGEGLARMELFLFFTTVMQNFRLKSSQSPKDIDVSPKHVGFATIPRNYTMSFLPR
From the text: (§1) Since this type of inhibition also requires that the inhibitor is initially metabolized by the target enzyme, MBIs may be identified by evaluating the inhibition in the presence and absence of cofactors that are required for activity, such as NADPH for CYPs.

[2] = molecular target: T1, CYP2A6; experiment: Time-dependent inhibition screen, recombinant CYP2A6 system, coumarin hydroxylase readout; settings: for Fold difference (with respect to CA): kinact/kI relative to t-CA; for time-dependent inhibition of CYP2A6, result in words: with NADPH, 7-hydroxycoumarin formation; for kinact / kinact/kI: Table 5
From the text: as §1

[3] = molecular target: T1, CYP2A6; experiment: in vitro
From the text: as §1

[4] = molecular target: T1, CYP2A6; experiment: biochemical; remark: listed apart in the source
From the text: A 96-well plate assay and fluorescence spectroscopy may be used to quantify the product, 7-hydroxycoumarin.
Data was fit using GraphPad Prism.

[5] = molecular target: T2, CYP2A6 (Homo sapiens, UniProt P11509, K28S/Q25K/Q26K/R27T/W24A); experiment: biochemical
T2 sequence (P11509 with tags, fused parts or gaps limits assumed): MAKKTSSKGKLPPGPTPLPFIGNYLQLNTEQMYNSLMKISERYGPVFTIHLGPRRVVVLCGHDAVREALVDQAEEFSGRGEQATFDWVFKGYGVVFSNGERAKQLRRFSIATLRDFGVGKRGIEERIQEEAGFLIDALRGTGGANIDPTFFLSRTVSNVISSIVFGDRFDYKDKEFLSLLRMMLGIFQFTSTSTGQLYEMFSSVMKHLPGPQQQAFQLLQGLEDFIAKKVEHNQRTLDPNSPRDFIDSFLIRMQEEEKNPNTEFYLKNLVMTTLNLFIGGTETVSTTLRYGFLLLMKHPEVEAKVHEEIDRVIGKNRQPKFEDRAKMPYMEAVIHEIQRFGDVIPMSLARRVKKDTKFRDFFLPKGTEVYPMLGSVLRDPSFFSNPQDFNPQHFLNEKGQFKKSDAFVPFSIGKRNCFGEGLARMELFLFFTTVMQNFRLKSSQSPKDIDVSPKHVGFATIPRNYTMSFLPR
Experimental: Spectral binding studies were conducted using purified heterologously expressed CYP2A6 in Escherichia coli. […] Absorbance changes (A386-A418) may be plotted against added ligand concentrations in order to determine dissociation constants.
In more detail, the CYP2A6 enzyme may be heterologously expressed in Escherichia coli and purified. The expression vector, pKK2A6dH may be used to express the enzyme. The vector contains a cDNA sequence that codes for human CYP2A6 with a deletion of the N-terminal transmembrane sequence, an alteration of several residues at the modified N-terminus to increase expression, and four histidine residues added at the C-terminus to aid in purification. […] Expression from the vector may be induced with the addition of IPTG to bacterial cultures. δ-Aminolevulinic acid is added during expression to supplement heme biosynthesis. The enzyme may be purified following previously reported protocols. Briefly, following cell disruption, the solubilized enzyme may be purified using Ni^2+-affinity chromatography and cation-exchange (CM sepharose) chromatography, which may lead to protein of high purity and P450 content.

[6] = obtained from PubChem and ChemSpider; cited from earlier work
[7] = molecular target: T3, recombinant CYP2A13 (Homo sapiens, UniProt Q16696); experiment: Time-dependent inhibition, recombinant CYP2A13 system, coumarin hydroxylase readout; format: biochemical
T3 sequence (Q16696 1-494): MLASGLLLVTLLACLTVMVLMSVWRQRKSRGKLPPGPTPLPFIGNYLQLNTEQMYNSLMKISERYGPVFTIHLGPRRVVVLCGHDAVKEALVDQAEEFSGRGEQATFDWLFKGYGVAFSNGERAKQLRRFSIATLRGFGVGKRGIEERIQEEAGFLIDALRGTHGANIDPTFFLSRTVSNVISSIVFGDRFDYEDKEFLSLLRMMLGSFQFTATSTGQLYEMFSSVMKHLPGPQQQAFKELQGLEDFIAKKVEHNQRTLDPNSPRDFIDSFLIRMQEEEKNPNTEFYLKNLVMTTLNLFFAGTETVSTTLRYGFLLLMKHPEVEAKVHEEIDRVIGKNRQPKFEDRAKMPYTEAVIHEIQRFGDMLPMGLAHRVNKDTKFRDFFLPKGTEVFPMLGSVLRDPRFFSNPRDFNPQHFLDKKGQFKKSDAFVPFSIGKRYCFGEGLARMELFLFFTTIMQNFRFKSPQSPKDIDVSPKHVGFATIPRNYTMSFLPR
From the text: The above-discussed approach regarding evaluation of selectivity, potency and inhibition parameters of human CYP2A6 by t-CA and structural analogs thereof may be similarly applied to evaluation of the same parameters with regard to CYP2A13.

[8] = molecular target: T4, CYP2A6-mediated nicotine metabolism (Homo sapiens, UniProt P11509); experiment: Model (Equation 2) predicting change in nicotine AUC from mechanism-based inhibition parameters; settings: Table 5, predicted nicotine AUC
T4 sequence (P11509 1-494): T1 sequence (P11509 1-494)

[9] = molecular target: T1, CYP2A6; settings: recombinant enzyme
From the text: as §1

[10] = design: species or system humans; settings: human
Experimental: This has also observed in rats, for which full pharmacokinetic studies are available. Converting the dose in rats to humanized equivalent doses can estimate the doses necessary to achieve low μM concentrations of CA in humans. […] In rats a single 250 mg/kg oral dose generated a t-CA blood concentration of 7.6 μM. With the BSA method, t-CA doses of 32 mg and 320 mg per day are estimated to achieve concentrations of 0.1 and 1 μM in humans.

[11] = in vivo; cited from earlier work
[12] = rat, in vivo, po, 250 mg/kg; cited from earlier work
[13] = recombinant CYP2A6, probe coumarin

Ki [1]: 47.2 µM
Fold difference (with respect to CA) [2]: 3.6
time-dependent inhibition of CYP2A6, result in words [2]: more potent inhibitors than t-CA
kinact [3, 13]: 0.00407 s⁻¹
kinact/KI [3, 13]: 86.2 M⁻¹ s⁻¹
IC50 [4]: 3.9 µM
Kd [5]: 7.8 µM
SMILES: O=C/C=C/c1c(F)cccc1F [2,6-difluoro-CA, 2,6-difluorocinnamaldehyde]
Log P [6]: 2.3

Ki [1]: 13.9 µM
Fold difference (with respect to CA) [2]: 11.2
time-dependent inhibition of CYP2A6, result in words [2]: more potent inhibitors than t-CA
kinact [3, 13]: 0.00372 s⁻¹
kinact/KI [3, 13]: 267 M⁻¹ s⁻¹
Ki [7]: 30.9 µM
kinact [7]: 0.00203 s⁻¹
kinact/KI [7]: 67.8 M⁻¹ s⁻¹
IC50 [4]: 15.1 µM
Kd [5]: 47.5 µM
SMILES: O=CC=Cc1ccccc1[N+](=O)[O-] [2-nitro-CA, 2-nitrocinnamaldehyde]

Ki [1]: 3.4 µM
kinact [2]: .15 min⁻¹
kinact/kI [2]: 0.04399
Fold difference (with respect to CA) [2]: 30.7
Fold difference (with respect to CA) ([2]; listed as α-chloro-cinnamaldehyde): over 30
kinact [3, 13]: 0.0025 s⁻¹
kinact/KI [3, 13]: 733 M⁻¹ s⁻¹
AUC fold increase [8]: 2.44-4.22
IC50 [4]: 3.3 µM
Kd [5]: 9.6 µM
SMILES: O=CC(Cl)=Cc1ccccc1 [α-chloro-CA, α-chlorocinnamaldehyde]
time-dependent inhibition of CYP2A6, result in words [2]: substantially more potent time-dependent inhibitor of CYP2A6 than t-CA; also recorded: more potent inhibitors than t-CA

Continued, molecule first:

SMILES: O=CCCc1ccccc1 [hydro-CA, hydrocinnamaldehyde]
Ki [1]: 85 µM
kinact [2]: .116 min⁻¹
kinact/kI [2]: 0.001365
Fold difference (with respect to CA) [2]: 0.96
time-dependent inhibition of CYP2A6, result in words [2]: not to be time-dependent inhibitors
kinact ([3]; recombinant enzyme): 0.00193 s⁻¹
kinact/KI ([3]; recombinant enzyme): 22.7 M⁻¹ s⁻¹
AUC fold increase [8]: 1.71-2.67
IC50 [4]: 48.3 µM
Kd [5]: 44.8 µM

SMILES: O=C/C=C/c1ccccc1 [t-CA, trans-cinnamaldehyde]
Ki [1]: 27.2 µM
time-dependent inhibition of CYP2A6, result in words [9]: increases with time
estimated t-CA dose ([10]; 0.1 μM): 32 mg per day
estimated t-CA dose ([10]; 1 μM): 320 mg per day
absorption upon oral administration [11]: completely absorbed
t-CA blood concentration [12]: 7.6 µM
IC50 [4]: 6.9 ± 1.2 µM
Kd [5]: 14.9 µM

SMILES: O=C/C(Br)=C/c1ccccc1 [α-bromo-CA, α-bromocinnamaldehyde]
Ki [1]: 36.3 µM
kinact [2]: .017 min⁻¹
kinact/kI [2]: 0.000463
Fold difference (with respect to CA) [2]: 0.32
time-dependent inhibition of CYP2A6, result in words [2]: less potency as compared to t-CA
kinact [3, 13]: 0.000283 s⁻¹
kinact/KI [3, 13]: 7.83 M⁻¹ s⁻¹
AUC fold increase [8]: 1.35-1.84
IC50 [4]: 2.8 µM
Kd [5]: 8.2 µM
Log P [6]: 2.7
